According to US20240207422A1, “NERVE TARGETING PEPTIDE CONJUGATES AND METHODS OF USE” (Alume Biosciences, Inc., priority 2022, published 2024):

Tested on: excised human nerve tissue
Assay: Phage display selection on excised human nerve tissue (Nerve2, Nerve3), NextGen sequence counts
Type: binding
Details: unique sequence count (relative enrichment)
Procedure: Several m13 phage libraries were constructed expressing randomized variants of a parent peptide (QVPWEEPYYVVKKS-SGGL; SEQ ID NO: 576). In particular, the first 14 amino acids of the parent peptide were randomized using degenerate oligonucleotide synthesis to obtain a diverse set of peptides with a mutation rate of about 50% per residue.
To accomplish this, synthesis was carried out by the XXK codon design approach, where X is any base and K is G or T. To bias synthesis towards the parent sequence, synthesis was carried out at each X position with a mixture of about 70%-85% of the parent nucleotide and 15-30% of the remaining 3 nucleotides. The resulting molecules were inserted into fADL-1e (Antibody Design Laboratories), which is a type 3 phage display vector having a cloning site on the N-terminal side of the full-length gene III protein. The fusion proteins are directed to the periplasm by the PelB leader peptide, which is inserted in the vector […].
Collectively, the phage display libraries used in the screens comprised about 600 million peptides, with sequencing analysis confirming a mutation rate of about 50% per residue.
Phage libraries were independently processed, as follows, with five biological samples: two independent samples of excised human nerve tissue, one sample of a human nerve extract, and two independent samples of human muscle tissue, as follows:
Excised Human Nerve Tissue: For each of the two independent samples, phage were processed through multiple cycles of selection, with representative phage being isolated and sequenced after each selection cycle. Specifically, for selection using human nerve tissue, a sample of […] tissue (2 mm by 2 mm) was washed prior to mixing and incubation with a phage library. After incubation, the mixture (containing mostly intact nerves with phage particles that had variable affinity for nerves) was centrifuged and the nerve pellet washed multiple times with PBS to remove phage with little or no affinity for nerve tissue. The pellet was homogenized and plated for titering and reamplification. Phage that were bound at each round were sequenced. NextGen sequencing of pools after 2, 3 and 4 rounds of selection were used to isolate candidate sequences that were further analyzed using bioinformatics.
NextGen sequencing of pools after 2, 3 and 4 rounds of selection were used to isolate candidate sequences from each of the five samples. These five data sets were then analyzed as described in the next section.
Peptide and vector sequences were translated starting at the first start codon in the nucleotide sequence. […] Trimmed peptides with identical sequences were combined and quantified according to their frequency (count).
Following processing, an R script was written to merge the unique peptide sequences (with counts 6 or greater) from the 5 different data sets to analyze the overlap between nerve and muscle binding activity.
For the single Nerve2, Nerve3, and Plated Nerve2 (pn2) subsets, the number of counts for each group was set at a threshold giving rise to at least 100 peptides. […] As highlighted in yellow in FIG. 1B, the representative group also included 6 unique peptides overlapping between nerve2 and nerve3, 200 unique peptides overlapping between nerve2 and plated nerve2 (at least 60 counts), 4 unique peptides overlapping between nerve3 and plated nerve2. Finally, as highlighted in green in FIG. 1B, the representative group also included […] common to the nerve2, nerve3, and plated nerve2 sets.

[1] = peptides common to Nerve2, Nerve3 and Plated Nerve 2 sets
[2] = peptides overlapping between Nerve2 and Nerve3
[3] = peptides overlapping between Nerve3 and Plated Nerve 2
[4] = peptides overlapping between Nerve2 and Plated Nerve2

Substance	Count [4]	further results
1 (TIPYAEPYYVVRKY) [compound 1]	–	Count [1]: 711
2 (DFTMQEPYYAEKKT) [compound 2]	–	Count [1]: 593
3 (HVTWQEQYYVLKTP) [compound 3]	–	Count [1]: 371
4 (HVPGVDPYSVVKKF) [compound 4]	–	Count [1]: 368
5 (HVAFEQPDNVLVLY) [compound 5]	–	Count [1]: 357
6 (QVPTEVQFYLVKEP) [compound 6]	–	Count [1]: 337
7 (QLPSEQPCCVVKKY) [compound 7]	–	Count [1]: 329
8 (QDPWVTRYYIVKKS) [compound 8]	–	Count [1]: 304
9 (QVPAKEPYNFMKKS) [compound 9]	–	Count [1]: 299
10 (YLTWEEPEHVNKQS) [compound 10]	–	Count [1]: 272
11 (QVPRQELYYVSHQF) [compound 11]	–	Count [1]: 245
12 (QHPFEQSFYVVNKF) [compound 12]	–	Count [1]: 227
13 (DILLDELRFAEKHG) [compound 13]	–	Count [1]: 203
14 (YNLWDAPSYLVKNS) [compound 14]	–	Count [1]: 201
15 (HVAGGERYFSVKES) [compound 15]	–	Count [1]: 185
16 (HLPSDQPLSVTKIS) [compound 16]	–	Count [1]: 173
17 (GFLGEEPYHFLAKR) [compound 17]	–	Count [1]: 167
18 (LRSTADAHYTLKKS) [compound 18]	–	Count [1]: 152
19 (ATPCSQPCAVVPKF) [compound 19]	–	Count [1]: 142
20 (QYAWEEPYYLEKKL) [compound 20]	–	Count [1]: 140
21 (HLPVEYPFYVFKNS) [compound 21]	–	Count [1]: 131
22 (RGSLEGPFKLGKTH) [compound 22]	–	Count [1]: 130

Substance	Count [4]	further results
23 (QVSSQEPNFIVKNN) [compound 23]	–	Count [1]: 116
24 (HFSAYEQYYVLRNS) [compound 24]	–	Count [1]: 111
25 (YVIKYAPYYAVTRS) [compound 25]	–	Count [1]: 93
26 (HLPEEELYTIVRKT) [compound 26]	–	Count [1]: 85
27 (QDPCVWPYNGVKKC) [compound 27]	–	Count [1]: 79
28 (HVHWDATYYAVTNS) [compound 28]	–	Count [1]: 77
29 (QFPYDHKNYVVKYS) [compound 29]	–	Count [1]: 69
30 (RFHMVGPYNVATTS) [compound 30]	–	Count [1]: 68
31 (HLPWEGQLNIGNKS) [compound 31]	–	Count [2]: 357
32 (DDLWQDLYGVVKKS) [compound 32]	–	Count [2]: 106
33 (NLAWAESKFLLEKI) [compound 33]	–	Count [2]: 71
34 (QLRYQEHYYLGYNS) [compound 34]	–	Count [2]: 56
35 (YVPWQEPYYVQKNL) [compound 35]	–	Count [2]: 49
36 (LVPWDETHKVVQRH) [compound 36]	–	Count [2]: 14
37 (HVALEQPYYAVKES) [compound 37]	–	Count [3]: 342
38 (QVQCKEQYYGVTNC) [compound 38]	–	Count [3]: 195
39 (QALYAEPAYVSKKF) [compound 39]	–	Count [3]: 19
40 (HVSMDERYYVVKKT) [compound 40]	–	Count [3]: 17
41 (HSYREEPYYFGKRS) [compound 41]	632	–
42 (QHTWKEPYNGQKRT) [compound 42]	577	–
43 (QLPMGGPYERVNNT) [compound 43]	380	–
44 (SVPKVHPYYVVNNS) [compound 44]	333	–

Substance	Count [4]	further results
45 (QVPTGEPLYPVQKT) [compound 45]	323	–
46 (QLPSYQAHDVMKVH) [compound 46]	308	–
47 (QIPSQRPSSVGAIA) [compound 47]	292	–
48 (QFPGDERYYLATST) [compound 48]	283	–
49 (HVSSQEPYYVLRNS) [compound 49]	252	–
50 (RLPSDDHNTFGTRS) [compound 50]	249	–
51 (QLHGDELLSVVKNP) [compound 51]	232	–
52 (ATEWEESYFHVKKF) [compound 52]	223	–
53 (RVPWEQSSWVVKRS) [compound 53]	220	–
54 (QIANKEPHTYVENS) [compound 54]	213	–
55 (QIRSEVTHSVVRES) [compound 55]	213	–
56 (QHTLNHPYSVVKTS) [compound 56]	205	–
57 (QVPSHELYFRPKES) [compound 57]	204	–
58 (EVPGGVPYYPMKKF) [compound 58]	201	–
59 (HVSGGQWVHGQKNS) [compound 59]	200	–
60 (HVPSKQMNSLAKKS) [compound 60]	196	–
61 (QIHFGEPNYVVKKS) [compound 61]	194	–
62 (QFPWEGSYYTAKQS) [compound 62]	193	–
63 (QIPWGEAYQAEKIT) [compound 63]	191	–
64 (VVPSNAQHLAPNMS) [compound 64]	191	–
65 (HVAEAESYNVVKKT) [compound 65]	187	–
66 (QIPCEGPYSGVQMC) [compound 66]	186	–

Substance	Count [4]	further results
67 (HITGGVPYPVVRDS) [compound 67]	185	–
68 (HVLWEDSSYHVTHH) [compound 68]	179	–
69 (HVTYDEQKYFVKKS) [compound 69]	179	–
70 (QVPSVQPYYIGKNT) [compound 70]	175	–
71 (QARFEQPYSGLRDS) [compound 71]	167	–
72 (LIPSAYPHSLWSKS) [compound 72]	166	–
73 (QLRSNEAYHVVKKS) [compound 73]	166	–
74 (QTQMQEPKYGVSHS) [compound 74]	163	–
75 (DVRWDEPYYVDEKI) [compound 75]	161	–
76 (HVPRVEPYNVVTNY) [compound 76]	158	–
77 (QFPGQALSFVHEKS) [compound 77]	152	–
78 (HFPSKALNNTAKNT) [compound 78]	151	–
79 (QFPPEQPYGLANKS) [compound 79]	150	–
80 (HVPWAGRHYVAKHS) [compound 80]	149	–
81 (RVAIDELYLIAHKS) [compound 81]	147	–
82 (QIPEQQPYNVFKKS) [compound 82]	142	–
83 (SIPGEDSLYAVTEH) [compound 83]	142	–
84 (QCPSEQPNYVCKIF) [compound 84]	140	–
85 (HGQTQEPSYVTVYY) [compound 85]	139	–
86 (HVHWQVPSNIVRNS) [compound 86]	139	–
87 (QLPWYEADYRMEYY) [compound 87]	139	–
88 (QLPSQAQNYYVTAS) [compound 88]	137	–

Substance	Count [4]	further results
89 (QVTSEEHYFAVKKF) [compound 89]	136	–
90 (TSLSGAPFHNANTF) [compound 90]	134	–
91 (HDASIALYDPVLMS) [compound 91]	133	–
92 (QLPGDVTYNLGHKS) [compound 92]	133	–
93 (QPTWEQPYHVDRNS) [compound 93]	131	–
94 (HIPFPGLYSNLDQS) [compound 94]	127	–
95 (DHPWDVRHYAHKKS) [compound 95]	126	–
96 (DVPWKESFNIVENS) [compound 96]	126	–
97 (QFARTAPYYVQTEY) [compound 97]	125	–
98 (QNPWQKPYTVMKTS) [compound 98]	123	–
99 (HLSFEEPLYGVKKS) [compound 99]	122	–
100 (QFPSGHRVYTGKMT) [compound 100]	122	–
101 (YNLYEQPYSVLKRS) [compound 101]	122	–
102 (HLPSQVTHYVITSF) [compound 102]	115	–
103 (QVPSHEPFYLGKKY) [compound 103]	114	–
104 (RVTQGSPVYGENNA) [compound 104]	114	–
105 (QIPMEETYSLRKMS) [compound 105]	113	–
106 (QIPWEAPSYGATIS) [compound 106]	113	–
